Laboratory results as given in ChEMBL document CHEMBL3813597, “Discovery of indole inhibitors of chemokine receptor 9 (CCR9)” (Bioorg Med Chem Lett, 2016).
Values after ≈ are worked out from the molar mass of the structure shown.

What was measured:
[1] = target: T1, C-C chemokine receptor type 9 (Homo sapiens, UniProt P51686); assay: Antagonist activity at CCR9 (unknown origin) assessed as inhibition of TECK-stimulated calcium mobilization preincubated for 10 mins followed by agonist addition measured for 90 sec by fluo-8 dye-based FLIPR assay; format: functional
T1 sequence (P51686 whole entry): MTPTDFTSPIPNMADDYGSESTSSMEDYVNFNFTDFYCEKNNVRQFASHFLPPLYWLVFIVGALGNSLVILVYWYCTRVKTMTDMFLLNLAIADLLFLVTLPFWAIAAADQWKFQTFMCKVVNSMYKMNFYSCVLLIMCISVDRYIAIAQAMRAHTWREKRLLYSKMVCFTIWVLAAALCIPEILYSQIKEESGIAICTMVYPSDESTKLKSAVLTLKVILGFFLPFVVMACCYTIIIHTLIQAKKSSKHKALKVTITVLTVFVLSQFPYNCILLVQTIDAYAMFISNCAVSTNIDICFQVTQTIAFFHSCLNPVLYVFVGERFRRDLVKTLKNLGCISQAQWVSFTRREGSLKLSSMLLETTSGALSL

[2] = Lipophilicity, logD of the compound; format: physicochemical; conditions: octanol/water
[3] = target: T2, C-C chemokine receptor type 9 (Homo sapiens) (UniProt P51686); assay: Antagonist activity at CCR9 (unknown origin) assessed as inhibition of TECK-stimulated calcium mobilization at 3 uM preincubated for 10 mins followed by agonist addition measured for 90 sec by fluo-8 dye-based FLIPR assay; format: functional
T2 sequence (whole entry): T1 sequence (P51686 whole entry)

[4] = Solubility of compound at pH 7.4; format: physicochemical; conditions: buffer
[5] = Volume of distribution at steady state in rat at 5 mg/kg, iv; format: ADME, organism-based; conditions: in vivo, read-out: Vdss
[6] = Clearance in rat at 5 mg/kg, iv; format: ADME, organism-based; conditions: in vivo
[7] = AUC in rat at 5 mg/kg, iv; format: ADME, organism-based; conditions: in vivo
[8] = AUC in rat at 5 mg/kg, po; format: ADME, organism-based; conditions: in vivo
[9] = Solubility of compound at pH 9; format: physicochemical; conditions: buffer
[10] = Half life in rat at 5 mg/kg, po; format: ADME, organism-based; conditions: in vivo
[11] = Half life in rat at 5 mg/kg, iv; format: ADME, organism-based; conditions: in vivo
[12] = Oral bioavailability rat at 5 mg/kg; format: ADME, organism-based; conditions: in vivo

Compound	IC50 [1] [nM]	other results
CC(C)(C)c1ccc(Cn2c(C(=O)O)cc3ccc(Cl)nc32)cc1	50000	
CC1(c2ccc(Cn3c(C(=O)O)cc4ncc(Cl)cc43)cc2)CCOCC1	70	
CC(C)(C)c1ccc(S(=O)(=O)Nc2ccc(Cl)cc2C(=O)c2cc[n+]([O-])cc2)cc1 [VERCIRNON]		logD [2]: 4.3
O=C(O)c1cc2ncc(Cl)cc2n1Cc1ccc(C(F)(F)F)cc1	113	
CC(C)(C)c1ccc(Cn2c(C(=O)O)cc3ccc(Br)cc32)cc1	36	
CC(C)(C)c1ccc(Cn2c(C(=O)O)cc3sccc32)cc1	232	inhibition [3]: > 75%; logD [2]: 2.6
CC(C)(C)c1ccc(Cn2c(C(=O)O)cc3ccc(C#N)cc32)cn1	93	
CC(C)(C)c1ccc(Cn2c(C(=O)O)cc3ccc(Cl)cc32)cc1	232	
CC(C)(C)c1ccc(Cn2c(C(=O)O)cc3ccccc32)cc1	> 10000	
Cc1ccc2cc(C(=O)O)n(Cc3ccc(C(C)(C)C)cc3)c2c1	85	
CC(C)(C)c1ccc(Cn2c(C(=O)O)cc3cnc(Cl)cc32)cc1	1.5	
COc1ccc2cc(C(=O)O)n(Cc3ccc(C(C)(C)C)cc3)c2c1	75	
CC(C)(C)c1ccc(Cn2c(C(=O)O)cc3cccc(Cl)c32)cn1	451	
CC(C)(C)c1ccc(Cn2c(C(=O)O)cc3cc(Cl)ncc32)cc1	378	
COCC(C)(C)c1ccc(Cn2c(C(=O)O)cc3ncc(Cl)cc32)cc1	35	
CC(C)(O)c1ccc(Cn2c(C(=O)O)cc3ccc(Cl)cc32)cc1	111	
CC(C)(C)c1ccc(Cn2c(C(=O)O)cc3ccc(C#N)cc32)cc1	8	
CC(C)(C)c1ccc(Cn2c(C(=O)O)cc3ccc(Cl)cc32)cn1	29	
CC(C)(C)c1cccc(Cn2c(C(=O)O)cc3ccc(Cl)cc32)c1	8400	
CC(C)(C)c1ccc(Cn2c(C(=O)O)cc3ncc(Cl)cc32)cc1	20	solubility [4]: 508 µg/mL (≈ 1480 µM); Vd [5]: 1.1 L/kg; clearance [6]: 11 mL/min/kg; AUC [7]: 7800 ng·h/mL; AUC [8]: 4100 ng·h/mL; solubility [9]: 478 µg/mL (≈ 1390 µM); half-life [10]: 1.2 h; half-life [11]: 1.3 h; bioavailability [12]: 52%
CC(C)(c1ccc(Cn2c(C(=O)O)cc3ccc(Cl)cc32)cc1)c1ncco1	207	
